Patent publication US8642592B2, “Oxo-heterocyclically substituted alkyl carboxylic acids and use thereof” (Bayer Intellectual Property GmbH, priority 2009, dated 2014)

Columns and labels:
saphenous artery = assay: Vasorelaxant effect in vitro (phenylephrine-contracted artery rings); parameters: species or system Rabbits; conditions: Oryctolagus cuniculus; concentration reducing phenylephrine-induced contraction of rabbit saphenous artery rings by 50%
Experimental: Rabbits are anesthetized and sacrificed by intravenous injection of thiopental sodium (about 50 mg/kg) and exsanguinated. The saphenous artery is removed and divided into rings 3 mm wide. The rings are mounted singly on in each case a pair of triangular hooks open at the end and made of 0.3 mm-thick special wire (Remanium®). Each ring is placed under an initial tension in 5 ml organ baths with Krebs-Henseleit solution which is at 37° C., is gassed with carbogen and has the following composition: NaCl 119 mM; KCl 4.8 mM; CaCl2×2 H2O 1 mM; MgSO4×7 H2O 1.4 mM; KH2PO4 1.2 mM; NaHCO3 25 mM; glucose 10 mM; bovine serum albumin 0.001%. The force of contraction is detected with Statham UC2 cells, amplified and digitized via A/D converters (DAS-1802 HC, Keithley Instruments, Munich) and recorded in parallel on chart recorders. Contractions are induced by addition of phenylephrine.
After several (generally 4) control cycles, the substance to be investigated is added in each further run in increasing dosage, and the level of the contraction achieved under the influence of the test substance is compared with the level of the contraction reached in the last preceding run. The concentration necessary to reduce the contraction reached in the preceding control by 50% is calculated from this (IC50). The standard application volume is 5 μl. The proportion of DMSO in the bath solution corresponds to 0.1%.

[1] = biological target: T1, soluble guanylate cyclase (sGC) (Rattus norvegicus, UniProt P20595); assay: Stimulation of sGC enzyme activity (PPi/luciferase detection); type: biochemical; conditions: sGC enzyme in vitro
T1 construct: made in house; host or cells: baculovirus/Sf9 insect cells
T1 sequence (P20595 1-619): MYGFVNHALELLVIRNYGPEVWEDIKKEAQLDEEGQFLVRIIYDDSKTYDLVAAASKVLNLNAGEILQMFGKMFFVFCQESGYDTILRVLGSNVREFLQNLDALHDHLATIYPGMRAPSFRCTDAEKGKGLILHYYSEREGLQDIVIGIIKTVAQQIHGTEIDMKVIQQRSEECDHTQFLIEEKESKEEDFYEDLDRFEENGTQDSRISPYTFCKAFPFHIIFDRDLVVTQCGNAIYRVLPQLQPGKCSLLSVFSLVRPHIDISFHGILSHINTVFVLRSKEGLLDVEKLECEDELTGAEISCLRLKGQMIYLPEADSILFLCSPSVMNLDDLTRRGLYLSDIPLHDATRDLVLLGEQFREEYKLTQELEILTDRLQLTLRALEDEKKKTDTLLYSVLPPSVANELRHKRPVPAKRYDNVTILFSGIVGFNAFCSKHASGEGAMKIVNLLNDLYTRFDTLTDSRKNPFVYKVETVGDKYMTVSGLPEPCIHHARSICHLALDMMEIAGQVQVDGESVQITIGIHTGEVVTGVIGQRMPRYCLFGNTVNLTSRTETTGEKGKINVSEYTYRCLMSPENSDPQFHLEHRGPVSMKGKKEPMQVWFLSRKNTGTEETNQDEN
T1 sequence (P19686 1-690 partner): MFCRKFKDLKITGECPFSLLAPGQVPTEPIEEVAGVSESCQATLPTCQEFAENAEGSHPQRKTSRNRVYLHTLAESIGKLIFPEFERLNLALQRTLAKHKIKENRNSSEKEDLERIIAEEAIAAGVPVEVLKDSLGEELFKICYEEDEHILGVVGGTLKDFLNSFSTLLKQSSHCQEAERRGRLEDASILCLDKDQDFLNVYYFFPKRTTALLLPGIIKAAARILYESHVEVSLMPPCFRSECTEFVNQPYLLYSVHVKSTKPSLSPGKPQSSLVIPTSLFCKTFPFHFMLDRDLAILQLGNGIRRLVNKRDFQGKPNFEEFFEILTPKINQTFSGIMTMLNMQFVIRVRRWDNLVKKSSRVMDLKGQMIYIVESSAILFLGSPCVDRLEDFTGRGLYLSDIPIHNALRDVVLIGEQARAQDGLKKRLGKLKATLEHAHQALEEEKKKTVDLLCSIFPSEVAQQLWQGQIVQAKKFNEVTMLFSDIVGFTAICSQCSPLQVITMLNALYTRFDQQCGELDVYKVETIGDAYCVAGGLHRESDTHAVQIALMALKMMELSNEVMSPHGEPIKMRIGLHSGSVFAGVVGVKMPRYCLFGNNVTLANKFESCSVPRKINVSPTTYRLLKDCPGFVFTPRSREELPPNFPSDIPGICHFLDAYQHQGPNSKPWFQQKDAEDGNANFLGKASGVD
Experimental: Soluble guanylate cyclase (sGC) converts on stimulation GTP into cGMP and pyrophosphate (PPi). PPi is detected with the aid of the assay described below. The signal produced in the assay increases as the reaction progresses and serves as a measure of the sGC enzyme activity under the given stimulation.
To carry out the assay, 29 μl of enzyme solution [0-10 nM soluble guanylate cyclase (prepared according to Honicka et al., J. Mol. Med. 77, 14-23 (1999)) in 50 mM TEA, 2 mM MgCl2, 0.1% BSA (fraction V), 0.005% Brij®, pH 7.5] are initially introduced into a microplate, and 1 μl of the substance to be tested (as a serially diluted solution in DMSO) is added. The mixture is incubated at room temperature for 10 min. Then 20 μl of detection mix [1.2 nM Firefly Luciferase (Photinus pyralis luciferase, Promega), 29 μM dehydroluciferin (prepared according to Bitler & McElroy, Arch. Biochem. Biophys. 72, 358 (1957)), 122 μM luciferin (Promega), 153 μM ATP (Sigma) and 0.4 mM DTT (Sigma) in 50 mM TEA, 2 mM MgCl2, 0.1% BSA (fraction V), 0.005% Brij®, pH 7.5] are added. The enzyme reaction is started by adding 20 μl of substrate solution [1.25 mM guanosine 5′-triphosphate (Sigma) in 50 mM TEA, 2 mM MgCl2, 0.1% BSA (fraction V), 0.005% Brij®, pH 7.5] and measured continuously in a luminometer. The extent of the stimulation by the substance to be tested can be determined relative to the signal of the unstimulated reaction.
The activation of heme-free guanylate cyclase is examined by addition of 25 μM of 1H-1,2,4-oxadiazolo[4,3-a]quinoxalin-1-one (ODQ) to the enzyme solution and subsequent incubation for 30 minutes and compared to the stimulation of the native enzyme.

IC50 (saphenous artery): 284 nM | MEC (minimum effective concentration), activating action at the sGC enzyme [1]: 51 nM
Compound: O=C(NCCCCC1(C(=O)O)CC1)C(c1ccc(CN2N=C(c3ccccc3)OCC2=O)cc1)C1CCCC1 (single isomer, unassigned; (+)) [Example 1, (+)-1-(4-{[2-cyclopentyl-2-{4-[(5-oxo-2-phenyl-5,6-dihydro-4H-1,3,4-oxadiazin-4-yl)methyl]phenyl}-acetyl]amino}butyl)cyclopropanecarboxylic acid]
